Results published in PMC5916772 (ACS combinatorial science, 2017).

Tests used:
[1] = system: polyclonal anti-1′Nic antiserum; assay: Competition ELISA of polyclonal anti-1′Nic antiserum on 1′Nic-BSA coated plates; assay type: binding, mice; details: pooled polyclonal anti-1′Nic antiserum; free HPs as competitors
[2] = system: monoclonal anti-1′Nic antibody, mAb-5F3; assay type: binding, mice

| HP-IC50/Nic-IC50 ratio, binding activity to antiserum [1] | Compound | HP-IC50/Nic-IC50 ([2]; IC50 ratio of HP-IC50 to IC50 of free nicotine on the same ELISA plate) | IC50 ([2]; read-out: HP-IC50, free HPs as competitors, 1′Nic-BSA coated plates) [nM] |
| --- | --- | --- | --- |
| close to or larger than 1.0 | O=C(CCCN1CCC[C@H]1c1cccnc1)NC1CCC(C(=O)O)CC1 (stereo partly drawn) [HP 2, 4-(4-((S)-2-(Pyridin-3-yl)pyrrolidin-1-yl)butanamido)-cyclohexanecarboxylic Acid] | – | – |
| – | CN1CCC[C@H]1c1cccnc1 [free Nic, nicotine] | 1.0 | 1410 ± 250 |
